Test results published in patent publication US20260284005A1, “INHIBITING MITOGEN-ACTIVATED PROTEIN (MAP)/ERK KINASE (MEK)1 AND MEK2 AND RELATED METHODS OF TREATMENT” (priority 2023, published 2026).
Like-named read-outs stand apart in the source and are kept apart here. Values belong to the molecule of their own block, whether it stands above or below them.

Columns and labels:
[1] = test system: tumor models (cell lines); assay: Humanized 3D tumor growth assay (3D-TGA), tumor model panel / other cell lines; format: cell-based, human; settings: Homo sapiens, agent alone
Excerpt: The humanized 3D tumor growth assay (3D-TGA) is an extracellular matrix (ECM)-based, 3D tumor model that more faithfully mimics the human tumor microenvironment (TME) with the goal of improving translational fidelity to patients. See Casneuf T, et al., “Interleukin-6 is a potential therapeutic target in interleukin-6 dependent, estrogen receptor-α-positive breast cancer,” Breast Cancer (Dove Med Press). […] MEK inhibition in the 3D-TGA. […]
All cell lines were validated by IDEXX upon receipt and assay setup. See Appendix for full cell line list.
(§1) Cells were seeded in 3D cultures in a black-walled, clear-bottom, non-tissue culture treated, 384-well plate (3000 cells per well) using a 1:1 mixture of BME and a custom media and grown in a humidified incubator with 5% CO2 and 5% O2, which approximates capillary levels for each gas, at 37° C. […] Cells were assessed for cell proliferation using EdU cell proliferation staining. […] Cells were permeabilized with 30 μL of filtered 0.5% Triton X-100 in PBS for 20 minutes at room temperature. Samples were washed twice gently with PBS. Cells were stained utilizing click-iT chemistry by adding 20 μL of staining cocktail containing 2 mM copper sulfate, 8 μM sulfo-Cy5-azide, and 20 mg/ml ascorbic acid in PBS and incubated 30-60 minutes at room temperature in dark. […] Plates were imaged with the Molecular Devices Pico ImageXpress. Images were segmented and percentage of cells with EdU incorporation was quantified to calculate antiproliferative effects of the drugs.
(§2) Five (5)-ethynyl-2′-deoxyuridine (EdU) data was represented as percentage EdU positive cells quantified by high content imaging from the Molecular Devices ImageXpress® Pico.

NCI-H2122 cells = assay: 3D-TGA; format: cell-based, human; settings: Homo sapiens, NCI-H2122, read-out: IC50 in 3D-TGA, KRAS G12C inhibitor alone
Procedure: as §1, §2

HCC-44 cells = assay: 3D-TGA; format: cell-based, human; settings: Homo sapiens, HCC44, read-out: IC50 in 3D-TGA, KRAS G12C inhibitor alone
Procedure: as §1, §2

LU99 cells = assay: 3D-TGA; format: cell-based, human; settings: Homo sapiens, Lu-99, read-out: IC50 in 3D-TGA, KRAS G12C inhibitor alone
Procedure: as §1, §2

NCI-H2030 cells = assay: 3D-TGA; format: cell-based, human; settings: Homo sapiens, NCI-H2030, read-out: IC50 in 3D-TGA, KRAS G12C inhibitor alone
Procedure: as §1, §2

NCI-H358 cells = assay: 3D-TGA; format: cell-based, human; settings: Homo sapiens; NCI-H358, LUN, KRAS G12C; read-out: IC50 in 3D-TGA, KRAS G12C inhibitor alone
NCI-H1792 cells = assay: 3D-TGA; format: cell-based, human; settings: Homo sapiens, NCI-H1792, LUN, KRAS G12C
[2] = test system: MIA PaCa-2 (KRAS G12C) pancreatic xenograft; assay: MIA PaCa-2 pancreatic xenograft tumor model; format: in vivo, athymic nude mice; settings: MIA PaCa-2 KRAS G12C xenograft, 21 days
Excerpt: Gemcitabine (antimetabolite), nab-paclitaxel (taxane) and fluorouracil (5-FU; antimetabolite) were commercially purchased. All studies started with 12 animals, per group. Mice within specific groups randomized for cross-over of treatments (≥day 42). […] Additive models: MIA PaCa-2, PA-TU-8988S, CFPAC-1, HPAF-II, Panc 03.27, PSN-1, Panc 10.05, Capan-1, HPAC, PANC-1.

CORL23 cells = assay: 3D-TGA; format: cell-based; settings: Homo sapiens, COR-L23, CORL23, LUN, KRAS G12V, ALK R317T, agent alone
Procedure: as §1, §2

NCI-H2087 cells = assay: 3D-TGA; format: cell-based; settings: Homo sapiens, NCI-H2087, LUN, NRAS Q61K, ALK S553A, agent alone
Procedure: as §1, §2

A549 cells = assay: 3D-TGA; format: cell-based, human; settings: Homo sapiens; A549, LUN, KRAS G12S; agent alone; read-out: IC50 in 3D-TGA Talazoparib
Procedure: as §1, §2

SNU-1197 cells = assay: 3D-TGA; format: cell-based, human; settings: Homo sapiens, read-out: IC50 in 3D-TGA, agent alone
Procedure: as §1, §2

CL-40 cells = assay: 3D-TGA; format: cell-based, human; settings: Homo sapiens, read-out: IC50 in 3D-TGA, agent alone
Procedure: as §1, §2

PANC-1 cells = assay: 3D-TGA; format: cell-based, human; settings: Homo sapiens; PANC-1, PAN, KRAS G12D; read-out: IC50 in 3D-TGA, agent alone
Procedure: as §1, §2

HT-29 cells = assay: 3D-TGA; format: cell-based, human; settings: Homo sapiens, HT-29, read-out: IC50 in 3D-TGA, agent alone
Procedure: as §1, §2

SW626 cells = assay: 3D-TGA; format: cell-based, human; settings: Homo sapiens, SW626, read-out: IC50 in 3D-TGA, agent alone
Procedure: as §1, §2

RCM-1 cells = assay: 3D-TGA; format: cell-based, human; settings: Homo sapiens, RCM-1, read-out: IC50 in 3D-TGA, agent alone
Procedure: as §1, §2

LS1034 cells = assay: 3D-TGA; format: cell-based, human; settings: Homo sapiens, LS-1034; LS1034, COL, KRAS A146T; read-out: IC50 in 3D-TGA, agent alone
Procedure: as §1, §2

[3] = read-out: IC50 in 3D-TGA, KRAS G12C inhibitor alone
[4] = read-out: IC50 in 3D-TGA Lorlatinib
[5] = read-out: IC50 in 3D-TGA Brigatinib

SMILES: C=CC(=O)N1CCN(c2nc(=O)n(-c3c(C)ccnc3C(C)C)c3nc(-c4c(O)cccc4F)c(F)cc23)[C@@H](C)C1 [sotorasib]
- IC50 (NCI-H2122 cells): > 1000 nM
- IC50 (HCC-44 cells): > 1000 nM
- IC50 (LU99 cells): > 1000 nM
- IC50 (NCI-H2030 cells): < 50 nM
- IC50 (NCI-H358 cells): 100 to 500 nM
- IC50 (NCI-H1792 cells; [3]): > 1000 nM
- BWL [2]: insignificant BWL

SMILES: COc1cccc2c1C(=O)c1c(O)c3c(c(O)c1C2=O)C[C@@](O)(C(C)=O)C[C@@H]3O[C@H]1C[C@H](N)[C@H](O)[C@H](C)O1 [Daunorubicin, daunorubicin]
- IC50 ([1]; HL-60, HL-60, AML, NRAS Q61L, read-out: IC50 in 3D-TGA Daunorubicin): 67.6 nM
- IC50 ([1]; NB4, AML, KRAS Amp, read-out: IC50 in 3D-TGA Daunorubicin): 63.2 nM
- IC50 ([1]; OCI-AML-3, OCI-AML3, AML, NRAS Q61L, read-out: IC50 in 3D-TGA Daunorubicin): 28 nM
- IC50 ([1]; PL-21, PL-21, AML, KRAS A146V, read-out: IC50 in 3D-TGA Daunorubicin): 64.1 nM
- IC50 ([1]; TF-1, AML, NRAS Q61P, read-out: IC50 in 3D-TGA Daunorubicin): 56.2 nM
- IC50 ([1]; THP-1, THP-1, AML, NRAS G12D, read-out: IC50 in 3D-TGA Daunorubicin): 119 nM

SMILES: Cn1ncnc1[C@H]1c2n[nH]c(=O)c3cc(F)cc(c23)N[C@@H]1c1ccc(F)cc1 [Talazoparib, talazoparib]
- IC50 (A549 cells): > 1000 nM
- IC50 (NCI-H1792 cells; agent alone, read-out: IC50 in 3D-TGA Talazoparib): 500 to 1000 nM
- IC50 ([1]; HL-60, HL-60, AML, NRAS Q61L, read-out: IC50 in 3D-TGA Talazoparib): > 1000 nM
- IC50 ([1]; NCI-H1734, NCI-H1734, LUN, KRAS G13C, read-out: IC50 in 3D-TGA Talazoparib): > 1000 nM
- IC50 ([1]; THP-1, THP-1, AML, NRAS G12D, read-out: IC50 in 3D-TGA Talazoparib): > 1000 nM

SMILES: CC(=O)O[C@H]1C(=O)[C@@]2(C)[C@H]([C@H](OC(=O)c3ccccc3)[C@]3(O)C[C@H](OC(=O)[C@H](O)[C@@H](NC(=O)c4ccccc4)c4ccccc4)C(C)=C1C3(C)C)[C@]1(OC(C)=O)CO[C@@H]1C[C@@H]2O [Paclitaxel, paclitaxel]
- IC50 (SNU-1197 cells): 100 to 500 nM
- IC50 (CL-40 cells): < 50 nM
- IC50 (PANC-1 cells): 1000 nM
- IC50 (HT-29 cells): < 50 nM
- IC50 (SW626 cells): < 50 nM
- IC50 (RCM-1 cells): 100 to 500 nM
- IC50 (LS1034 cells): 1000 nM

SMILES: COc1cc(N2CCC(N3CCN(C)CC3)CC2)ccc1Nc1ncc(Cl)c(Nc2ccccc2P(C)(C)=O)n1 [Brigatinib, brigatinib]
- IC50 (CORL23 cells; [5]): 1000 nM
- IC50 (NCI-H2087 cells; [5]): 1000 nM

SMILES: C=C(F)C(=O)N1CCN(c2nc(OC[C@@H]3CCCN3C)nc3c2CCN(c2cccc4cccc(Cl)c24)C3)C[C@@H]1CC#N [adagrasib]
- IC50 (NCI-H2122 cells): > 1000 nM
- IC50 (HCC-44 cells): > 1000 nM
- IC50 (LU99 cells): > 1000 nM
- IC50 (NCI-H2030 cells): < 50 nM
- IC50 (NCI-H358 cells): 50 to 100 nM
- IC50 (NCI-H1792 cells; [3]): > 1000 nM

Next, values leading:

- IC50 ([1]; HL-60, HL-60, AML, NRAS Q61L, read-out: IC50 in 3D-TGA Azacitidine): 1000 nM
- IC50 ([1]; KHM-1B, MM, NRAS G12C/KRAS G12C, read-out: IC50 in 3D-TGA Azacitidine): 100 to 500 nM
- IC50 ([1]; NB4, AML, KRAS Amp, read-out: IC50 in 3D-TGA Azacitidine): 1000 nM
- IC50 ([1]; OCI-AML-3, OCI-AML3, AML, NRAS Q61L, read-out: IC50 in 3D-TGA Azacitidine): 1000 nM
- IC50 ([1]; PL-21, PL-21, AML, KRAS A146V, read-out: IC50 in 3D-TGA Azacitidine): 500 to 1000 nM
- IC50 ([1]; TF-1, AML, NRAS Q61P, read-out: IC50 in 3D-TGA Azacitidine): 1000 nM
- IC50 ([1]; THP-1, THP-1, AML, NRAS G12D, read-out: IC50 in 3D-TGA Azacitidine): 1000 nM
SMILES: Nc1ncn([C@@H]2O[C@H](CO)[C@@H](O)[C@H]2O)c(=O)n1 [Azacitidine, azacitidine]

- IC50 ([1]; HL-60, HL-60, AML, NRAS Q61L, read-out: IC50 in 3D-TGA Decitabine): 1000 nM
- IC50 ([1]; NB4, AML, KRAS Amp, read-out: IC50 in 3D-TGA Decitabine): 1000 nM
- IC50 ([1]; OCI-AML-3, OCI-AML3, AML, NRAS Q61L, read-out: IC50 in 3D-TGA Decitabine): 1000 nM
- IC50 ([1]; PL-21, PL-21, AML, KRAS A146V, read-out: IC50 in 3D-TGA Decitabine): 1000 nM
- IC50 ([1]; TF-1, AML, NRAS Q61P, read-out: IC50 in 3D-TGA Decitabine): 50 nM
- IC50 ([1]; THP-1, THP-1, AML, NRAS G12D, read-out: IC50 in 3D-TGA Decitabine): 1000 nM
SMILES: Nc1ncn([C@H]2C[C@H](O)[C@@H](CO)O2)c(=O)n1 [Decitabine, decitabine]

- IC50 (CORL23 cells; [4]): 1000 nM
- IC50 (NCI-H2087 cells; [4]): 1000 nM
SMILES: C[C@H]1Oc2cc(cnc2N)-c2c(nn(C)c2C#N)CN(C)C(=O)c2ccc(F)cc21 [Lorlatinib]

- IC50 ([1]; KHM-1B, MM, NRAS G12C/KRAS G12C, read-out: IC50 in 3D-TGA Bortezomib): 500 to 1000 nM
- IC50 ([1]; L-363, L-363, MM, NRAS Q61H, read-out: IC50 in 3D-TGA Bortezomib): 1000 nM
- IC50 ([1]; MM1.S, MM.1S, MM, KRAS G12A, read-out: IC50 in 3D-TGA Bortezomib): 50 to 100 nM
- IC50 ([1]; RPMI-8226, RPMI-8226, MM, KRAS G12A, read-out: IC50 in 3D-TGA Bortezomib): 100 to 500 nM
SMILES: CC(C)C[C@H](NC(=O)[C@H](Cc1ccccc1)NC(=O)c1cnccn1)B(O)O [Bortezomib, bortezomib]
